Experimental data taken from ChEMBL document CHEMBL3627693, “Novel aminotetrazole derivatives as selective STAT3 non-peptide inhibitors” (Eur J Med Chem, 2015).
Calls of active or inactive are those of the source. The rule behind the calls is not given here.

Tests used:
[1] = molecular target: T1, Signal transducer and activator of transcription 1-alpha/beta (Homo sapiens) (UniProt P42224); assay: Inhibition of STAT1 (unknown origin) expressed in IFN-gamma induced human HeLa cells at 50 uM incubated for 1 hr by luciferase reporter gene assay; assay type: cell-based
T1 sequence (whole entry): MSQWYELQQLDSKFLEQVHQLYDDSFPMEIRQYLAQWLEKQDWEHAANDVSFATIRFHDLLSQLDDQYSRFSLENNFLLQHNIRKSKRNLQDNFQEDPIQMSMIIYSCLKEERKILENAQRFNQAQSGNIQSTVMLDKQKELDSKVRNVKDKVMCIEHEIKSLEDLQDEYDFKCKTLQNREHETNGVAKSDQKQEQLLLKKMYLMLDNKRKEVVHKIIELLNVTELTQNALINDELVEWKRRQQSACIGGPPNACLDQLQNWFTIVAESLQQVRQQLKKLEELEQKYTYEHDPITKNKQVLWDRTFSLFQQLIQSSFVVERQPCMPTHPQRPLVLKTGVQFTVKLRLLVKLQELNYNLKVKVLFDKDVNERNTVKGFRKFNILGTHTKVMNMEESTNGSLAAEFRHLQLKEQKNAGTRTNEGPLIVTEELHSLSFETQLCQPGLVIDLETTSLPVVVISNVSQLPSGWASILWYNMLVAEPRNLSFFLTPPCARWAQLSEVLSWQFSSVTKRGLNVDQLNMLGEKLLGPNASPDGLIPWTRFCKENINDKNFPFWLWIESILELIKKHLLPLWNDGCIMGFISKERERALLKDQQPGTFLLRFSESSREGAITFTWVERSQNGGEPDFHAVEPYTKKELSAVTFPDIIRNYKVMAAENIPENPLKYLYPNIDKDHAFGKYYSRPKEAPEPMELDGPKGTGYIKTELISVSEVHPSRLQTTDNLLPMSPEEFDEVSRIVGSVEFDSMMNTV

[2] = molecular target: Signal transducer and activator of transcription 3 (Homo sapiens, UniProt P40763); assay: Inhibition of STAT3 (unknown origin) expressed in Oncostatin M induced human HeLa cells at 50 uM incubated for 1 hr by luciferase reporter gene assay; assay type: cell-based
Chain of Signal transducer and activator of transcription 3 (P40763 whole entry): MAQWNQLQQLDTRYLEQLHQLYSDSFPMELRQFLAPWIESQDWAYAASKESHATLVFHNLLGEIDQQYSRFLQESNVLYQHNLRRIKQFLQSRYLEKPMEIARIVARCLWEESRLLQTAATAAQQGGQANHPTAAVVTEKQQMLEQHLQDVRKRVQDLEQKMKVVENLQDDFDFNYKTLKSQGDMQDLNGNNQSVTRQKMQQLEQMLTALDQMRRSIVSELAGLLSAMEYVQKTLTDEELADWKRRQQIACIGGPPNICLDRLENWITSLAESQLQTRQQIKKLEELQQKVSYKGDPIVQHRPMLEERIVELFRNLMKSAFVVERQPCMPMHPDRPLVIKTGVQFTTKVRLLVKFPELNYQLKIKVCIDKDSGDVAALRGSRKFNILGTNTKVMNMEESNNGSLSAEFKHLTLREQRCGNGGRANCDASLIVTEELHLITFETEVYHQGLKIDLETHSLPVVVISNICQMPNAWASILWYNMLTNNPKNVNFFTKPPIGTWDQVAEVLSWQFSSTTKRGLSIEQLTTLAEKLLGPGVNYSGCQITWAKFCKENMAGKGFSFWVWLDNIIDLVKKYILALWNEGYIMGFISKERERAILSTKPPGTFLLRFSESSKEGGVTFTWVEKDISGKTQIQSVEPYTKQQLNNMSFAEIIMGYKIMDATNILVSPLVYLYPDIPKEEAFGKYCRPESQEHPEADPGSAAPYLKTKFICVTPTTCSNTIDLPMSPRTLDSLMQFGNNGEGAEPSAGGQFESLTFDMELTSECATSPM

Work on `COc1cc(CNc2nn[nH]n2)cc(Cl)c1OCc1cccc(-c2ccccc2)c1` yielded an inhibition [1] of 0% and an inhibition [2] of 8.2%.
`CCc1cc2c(cc1COc1c(Cl)cc(CNc3nn[nH]n3)cc1OC)C(C)(C)CCC2(C)C` gave an inhibition [1] of 72.7% and an inhibition [2] of 77%.
With `COc1cc(CNc2nn[nH]n2)cc(Br)c1OCc1ccc(C)cc1` the inhibition [1] was 11.8% and the inhibition [2] was 58.8%.
In the case of `O=[N+]([O-])c1ccc(COc2c(O)cc(CNc3nn[nH]n3)cc2Cl)cc1`, the inhibition [1] is reported as 0.6% and the inhibition [2] is reported as 25.3%.
`CCCOc1cc(COc2c(Cl)cc(CNc3nn[nH]n3)cc2OC)ccc1[N+](=O)[O-]` was tested, and the inhibition [1] was 2.8% and the inhibition [2] was 38.3%.
`COc1cc(CNc2nn[nH]n2)cc(Cl)c1OCc1ccc(C(F)(F)F)cc1` was tested, and the inhibition [1] was 11.5% and the inhibition [2] was 48.5%.
`COc1cc(CO)cc(Cl)c1OCc1ccc([N+](=O)[O-])cc1` gave an inhibition [1] of 43.6% and an inhibition [2] of 66.4%.
Compound `COc1cc(CNc2nn[nH]n2)cc(Cl)c1OCc1ccc(-c2nccs2)cc1` has an inhibition [1] of 0% and an inhibition [2] of 0%.
With `CCCCCCCCCOc1cc(COc2c(Cl)cc(CNc3nn[nH]n3)cc2OC)ccc1[N+](=O)[O-]` the inhibition [1] was 72.9% and the inhibition [2] was 82.7%.
`COc1cc(CC(c2nn[nH]n2)c2nn[nH]n2)cc(Cl)c1OCc1ccc(C)cc1` gave an inhibition [1] of 17.7% and an inhibition [2] of 38.6%.
`O=C(O)c1ccc(NC(=O)C2CC(=O)N(CCc3ccccc3)/C(=N/c3ccccc3)S2)cc1` (centres undefined) was tested, and the inhibition [2] was “Active”.
With `COc1cc(CNc2nn[nH]n2)ccc1OCc1c(Cl)cccc1Cl` the inhibition [2] was “Active”.
`COc1cc(CNc2nn[nH]n2)ccc1OCc1ccc(C)cc1` was tested, and the inhibition [1] was 0% and the inhibition [2] was 43%.
For `COc1cc(CNc2nn[nH]n2)cc(Cl)c1OC(C)c1ccccc1` (centres undefined), the inhibition [1] was 0% and the inhibition [2] was 0%.
Compound `COc1cc(CNc2nn[nH]n2)cc(Cl)c1OCc1ccc(C(N)=O)cc1` has an inhibition [1] of 9.5% and an inhibition [2] of 25.7%.
With `COc1cc(CNc2nn[nH]n2)cc(Cl)c1OCc1cccc(C(N)=O)c1` the inhibition [1] was 15% and the inhibition [2] was 15.9%.
`COc1cc(CNc2nn[nH]n2)cc(Cl)c1OCc1ccc(C(C)(C)C)cc1` was tested, and the inhibition [1] was 0% and the inhibition [2] was 11.9%.
`CCOc1cc(CNc2nn[nH]n2)cc(Cl)c1OCc1ccc([N+](=O)[O-])cc1` gave an inhibition [1] of 34.8% and an inhibition [2] of 20.4%.
For `COc1ccc([N+](=O)[O-])cc1COc1c(Cl)cc(CNc2nn[nH]n2)cc1OC`, the inhibition [1] was 0% and the inhibition [2] was 20.4%.
`C[C@@H]1CC(=O)c2c(ccc3c2C(=O)c2cccc(O)c2C3=O)C1` was tested, and the inhibition [1] was 13.1% and the inhibition [2] was 71%.
In the case of `CCOc1cc(CNc2nn[nH]n2)cc(I)c1OCc1ccc([N+](=O)[O-])cc1`, the inhibition [1] is reported as 15.1% and the inhibition [2] is reported as 32.4%.
`Clc1cc(CNc2nn[nH]n2)cc(OCCCc2ccccc2)c1OCc1ccccc1` gave an inhibition [1] of 11.1% and an inhibition [2] of 26.9%.
For `COc1cc(CCc2nn[nH]n2)cc(Cl)c1OCc1ccc(C)cc1`, the inhibition [1] was 0% and the inhibition [2] was 32.8%.
`COc1cc(CNc2nn[nH]n2)cc(Cl)c1OCc1ccc([N+](=O)[O-])cc1[N+](=O)[O-]` gave an inhibition [2] of 40.1%.
Work on `COc1cc(CNc2nn[nH]n2)cc(Cl)c1OCc1ccccc1[N+](=O)[O-]` yielded an inhibition [1] of 1.1% and an inhibition [2] of 31%.
In the case of `COc1cc(CNc2nn[nH]n2)cc(I)c1OCc1ccc(C)cc1`, the inhibition [1] is reported as 16.5% and the inhibition [2] is reported as 62.7%.
In the case of `COc1cc(CNc2nn[nH]n2)cc(Cl)c1OCc1ccc(C(=O)O)cc1`, the inhibition [1] is reported as 12.9% and the inhibition [2] is reported as 41.1%.
`COc1cc(CNc2nn[nH]n2)cc(Cl)c1OCc1ccc(-n2nc(C)cc2C)cc1` showed an inhibition [1] of 13.9% and an inhibition [2] of 2.6%.
With `COc1cc(CNc2nn[nH]n2)cc(Cl)c1OCc1ccc(F)cc1` the inhibition [1] was 1.2% and the inhibition [2] was 50.7%.
In the case of `COC(=O)Cc1c(C)c2ccc(OCc3nn[nH]n3)cc2oc1=O`, the inhibition [2] is reported as “Active”.
For `CC1CCc2c(sc3ncn(Cc4ccc(C(=O)O)cc4)c(=O)c23)C1` (centres undefined), the inhibition [2] was “Active”.
`CC(C)COC(=O)CN1C(=O)S/C(=C\c2ccc(C(=O)O)cc2)C1=O` was tested, and the inhibition [2] was “Active”.
`C=CCN1C(=O)C(CC(=O)Nc2ccc(C(=O)O)cc2)S/C1=N/c1cccc(Cl)c1` (centres undefined) was tested, and the inhibition [2] was “Active”.
